From US20250115596A1, “ESTERS OF 8-METHYL-8-AZABICYCLO[3.2.1] OCTAN-3-YL 3-HYDROXY-2-PHENYLPROPANOATE” (ADS Therapeutics LLC, priority 2022, published 2025) come the findings set out here.

Converted amounts (≈) assume the structure as drawn. Structures can show the parent of a compound that is named as a salt.

One data set in a line: physchem. The conditions noted are these: organic solvent or mixture, thermodynamic from solid.
In another data set the test system is Dutch Belted rabbits. Briefly: In vivo pharmacology study: pupil size after topical ocular instillation of eye drop formulation. The settings on record: for pupil size change from baseline: female Dutch Belted rabbits; for retention of pupil dilation during the measurement period: measured up to 24 hour after dosing. How it is done:
The test compound was administered to each animal by topical ocular instillation of 40 μL of eye drop formulation just once at day 1. The pupil size of both eyes of all animals were measured at baseline (30 minutes before dosing), 0.5 hour, 1 hour, 2 hour, 4 hour, 6 hour, 8 hour, 12 hour, and 24 hour after dosing. Pupil sizes were measured in both eyes of all animals on 3 separate days during acclimation prior to dosing initiation. Set the light intensity in the procedure room so that the animal's pupil size was about 6-7 mm. Light intensity of the procedure room for pupil size measurement should be maintained constant throughout the pupil size measurement procedures in the study. Pupil size change from baseline was calculated for each eye of each individual animal separately for each postdose timepoint. Mean and standard error of pupil size change from baseline were calculated for each group per postdose timepoint and plotted mean of pupil change from baseline against timepoint comparisons.

The mark [1] stands for this setting: 0.4% formulation in F6H8, single 40 μL eye drop.

As a reminder, the solubility is how much of the substance goes into solution per volume. On to `CCCCCCCC/C=C\CCCCCCCC(=O)OCC(C(=O)O[C@H]1C[C@H]2CC[C@@H](C1)N2C)c1ccccc1` (stereo partly drawn) [Compound 1, 3-(((1R,3r,5S)-8-methyl-8-azabicyclo[3.2.1]octan-3-yl)oxy)-3-oxo-2-phenylpropyl (9Z)-octadec-9-enoate], for which the solubility at 30 min in the data set “physchem” stood at 5000 µg/mL (≈ 9.03 mM). In addition, in the data set on Dutch Belted rabbits (setting [1]), the “pupil size change from baseline” value was “comparable pupil size dilation as the 0.01% atropine sulfate monohydrate” and the “retention of pupil dilation during the measurement period” value is “retained the pupil dilation throughout the measurement period”.
Taken in the same sequence, the figures for `CCCCC/C=C\C/C=C\CCCCCCCC(=O)OCC(C(=O)O[C@H]1C[C@H]2CC[C@@H](C1)N2C)c1ccccc1` (stereo partly drawn) [Compound 2, 3-(((1R,3r,5S)-8-methyl-8-azabicyclo[3.2.1]octan-3-yl)oxy)-3-oxo-2-phenylpropyl (9Z,12Z)-octadeca-9,12-dienoate] were 3870 µg/mL (≈ 7.01 mM), “over 10%” and “remained significantly dilated from baseline during the measurement period”.
On to `CCCCCCCCCCCCCCCC(=O)OCC(C(=O)O[C@H]1C[C@H]2CC[C@@H](C1)N2C)c1ccccc1` (some centres unmarked) [Compound 7, atropine palmitate], for which the solubility at 30 min in the data set “physchem” was 5610 µg/mL (≈ 10.6 mM).
Turning to `CCCCCC=CCCC(=O)OCC(C(=O)O[C@H]1C[C@H]2CC[C@@H](C1)N2C)c1ccccc1` (some centres unmarked) [Compound 13, atropine dec-4-enoate], the solubility at 30 min in “physchem” turned out to be 4900 µg/mL (≈ 11.1 mM).
Consider `CN1[C@@H]2CC[C@H]1C[C@@H](OC(=O)C(CO)c1ccccc1)C2` (some centres unmarked) [atropine sulfate monohydrate, reference compound], for which the “pupil size change from baseline” value with Dutch Belted rabbits (0.01% in normal saline, single 40 μL eye drop, 1 hour or 2 hour post-dose) is reported as “about 5%”.
For the compound `CC(C)CCC[C@@H](C)[C@H]1CC[C@H]2[C@@H]3CC=C4C[C@@H](O)CC[C@]4(C)[C@H]3CC[C@]12C` [cholesterol, reference compound], the solubility at 30 min in “physchem” (perfluorohexyloctane (F6H8)) was 79.7 µg/mL (≈ 0.206 mM).
Consider `CCCCCCCCCCCCCCCCCC(=O)O[C@H]1CC[C@@]2(C)C(=CC[C@H]3[C@@H]4CC[C@H]([C@H](C)CCCC(C)C)[C@@]4(C)CC[C@@H]32)C1` [cholesteryl stearate, reference compound], for which the solubility at 30 min in “physchem” came to 26.2 µg/mL (≈ 0.0402 mM).
